Measured values as given in ChEMBL document CHEMBL5236559 (J Med Chem, 2021).

Assays:
Format in all cases: functional, cell-based
HeLa = experiment: Cytotoxicity against human HeLa cells assessed as reduction in cell viability incubated for 48 hrs by MTT assay
SMMC-7721 = experiment: Cytotoxicity against human SMMC-7721 cells assessed as reduction in cell viability incubated for 48 hrs by MTT assay; conditions: SMMC-7721, 48 h
HepG2 = experiment: Cytotoxicity against human HepG2 cells assessed as reduction in cell viability incubated for 48 hrs by MTT assay; conditions: HepG2, 48 h
HL-60 = experiment: Cytotoxicity against human HL-60 cells assessed as reduction in cell viability incubated for 48 hrs by MTT assay; conditions: HL-60, 48 h

SMILES | IC50 (HeLa) | IC50 (SMMC-7721) | IC50 (HepG2) | IC50 (HL-60)
NCCCCCC(=O)Nc1cccc([As]2SCCCS2)c1 | > 10 µM | > 10 µM | 5.48 µM | 1.51 µM
NCCCCCC(=O)Nc1ccccc1[As]1SCCCS1 | > 10 µM | > 10 µM | 8.47 µM | 1.64 µM
NCCCCCC(=O)Nc1ccc([As]2SCCCS2)cc1 | > 10 µM | > 10 µM | 5.36 µM | 1.25 µM
